In article PMC2783604 (Synapse (New York, N.Y.), 2009):

How the values were obtained:
dopamine D3 receptor = dopamine D3 receptor (Macaca mulatta, UniProt F6U709); test: radioligand saturation binding by quantitative autoradiography on brain sections
[1] = biological target: dopamine D3 receptor (rD3) (Rattus norvegicus, UniProt P19020); test: radioligand saturation binding
[2] = biological target: dopamine D3 receptor (hD3) (Homo sapiens, UniProt P35462); test: radioligand saturation binding
Chain of dopamine D3 receptor (hD3) (P35462 whole entry): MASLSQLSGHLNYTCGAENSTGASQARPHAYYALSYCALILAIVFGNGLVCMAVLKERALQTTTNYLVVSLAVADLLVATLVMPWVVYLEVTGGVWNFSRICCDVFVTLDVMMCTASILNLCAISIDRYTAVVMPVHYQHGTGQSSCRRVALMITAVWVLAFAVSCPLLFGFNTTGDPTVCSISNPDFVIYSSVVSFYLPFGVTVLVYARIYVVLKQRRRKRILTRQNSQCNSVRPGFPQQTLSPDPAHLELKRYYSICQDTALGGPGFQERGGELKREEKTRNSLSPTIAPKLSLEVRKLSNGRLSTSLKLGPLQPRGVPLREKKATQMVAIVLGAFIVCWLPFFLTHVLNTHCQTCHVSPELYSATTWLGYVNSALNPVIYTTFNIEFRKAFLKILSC

Chain of dopamine D3 receptor (F6U709 1-400): as the sequence (P35462 whole entry) above, with S3P, A17V, I101V, A151T, P247R, K281R counted along it
Chain of dopamine D3 receptor (rD3) (P19020 whole entry): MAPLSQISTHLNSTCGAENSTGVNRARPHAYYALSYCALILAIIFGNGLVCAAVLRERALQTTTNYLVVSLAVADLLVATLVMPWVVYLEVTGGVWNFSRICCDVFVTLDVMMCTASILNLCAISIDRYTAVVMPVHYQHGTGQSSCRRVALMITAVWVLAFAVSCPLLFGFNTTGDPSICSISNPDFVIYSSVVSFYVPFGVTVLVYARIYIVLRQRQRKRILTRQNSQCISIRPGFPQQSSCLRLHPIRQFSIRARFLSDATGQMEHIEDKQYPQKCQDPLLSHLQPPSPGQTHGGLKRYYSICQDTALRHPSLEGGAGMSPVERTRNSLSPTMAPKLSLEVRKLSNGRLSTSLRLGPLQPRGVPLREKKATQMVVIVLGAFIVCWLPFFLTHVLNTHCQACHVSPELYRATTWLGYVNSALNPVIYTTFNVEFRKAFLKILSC

Kd (dopamine D3 receptor)	SMILES	Kd [1]	Kd [2]
1.1 nM	COc1ccccc1N1CCN(CCCCNC(=O)c2ccc(N(C)C)cc2)CC1 [WC-10, 4-(Dimethylamino)-N-(4-(4-(2-methoxyphenyl)piperazin-1-yl)butyl)benzamide]	–	–
–	CCN1CCC[C@H]1CNC(=O)c1c(O)c(Cl)cc(Cl)c1OC [[^3H]raclopride]	17.1 ± 1.7 nM	18 ± 1 nM
